Laboratory results taken from patent US20240408114A1, “METHODS FOR PREVENTING AND TREATING ACUTE KIDNEY INJURY” (The Johns Hopkins University, priority 2021, published 2024).

Key:
[1] = tested on: ischemic AKI in C57BL/6J mice; experiment: Ischemic AKI model (bilateral IRI 30 min): kidney function and histology; assay type: in vivo, mouse
Description: Mice were treated with 1.83 mg/kg of JHU083 or vehicle every other day via intraperitoneal injection and underwent bilateral IRI surgery on day 7 after the initial injection. […] Hollinger et al., 2020. Mice were followed up until 72 h after IRI, and T cells isolated from post-ischemic kidneys were studied (FIG. 14A).
Mice were anesthetized with an intraperitoneal injection of pentobarbital (75 mg/kg; Akorn, Lake Forest, IL). After shaving of abdominal hair, mice were placed onto a thermostatically controlled heating table. Abdominal midline incision was performed, and both renal pedicles were dissected and clamped for 30 min with a microvascular clamp (Roboz Surgical Instrument, Gaithersburg, MD). After 30 min, microvascular clamps were released from renal pedicles and the kidneys were inspected to confirm reperfusion. During the surgery, mice were kept well hydrated with 1 mL of warm sterile 0.9% saline. After being sutured, mice were allowed to recover with free access to chow and water. Sham surgeries were performed identically without clamping of renal pedicles.
Blood samples were obtained at 0, 24, 48, and 72 h after IRI or cisplatin injection through tail vein collection. Plasma creatinine concentration was measured by Cobas Mira Plus automated analyzer system (Roche, Indianapolis, IN) with creatinine reagent (Pointe Scientific Inc, Canton, MI).
At 24 h after IRI and 72 h after cisplatin injection, mice were anesthetized with ketamine (130 mg/kg; VetOne, Boise, ID) and xylazine (7 mg/kg; Akorn) intraperitoneal injection. After exsanguination, kidneys were collected and fixed with 10% buffered formalin followed by paraffin embedding. Tissue sections were stained with hematoxylin and eosin. A renal pathologist scored necrotic tubules in a blinded fashion.
Glutamine antagonist, JHU083 was synthesized as previously described, Rais et al., 2016, and dissolved in 50 mM […] 4-(2-hydroxyethyl)-1-piperazineethanesulfonic acid (HEPES) buffered 0.9% saline. Aliquot stocks were stored at −80° C. and thawed right before injection. Before the IRI surgery or cisplatin injection, mice were administered 1.83 mg/kg JHU083 (equivalent to 1 mg/kg DON) or vehicle (50 mM HEPES buffered 0.9% saline) every other day via intraperitoneal injection. Following 4 consecutive dosages, mice underwent IRI surgery or cisplatin injection. The last additional dose was given at 24 h after IRI or cisplatin injection. This dosage regimen was chosen based on efficiency and toxicity data from a previous study. Hollinger et al., 2020.

splenic T cells = experiment: Splenic T cell phenotypes in post-IRI mice; assay type: in vivo, mouse; settings: vs vehicle
Description: T cell proliferation assessed with Ki67 expression was reduced in CD4^+ and CD8^+ T cells from JHU083 treated post-ischemic kidneys (Ki67^+, CD4^+ T cells 58.7±2.9 vs 50.6±2.1%, P=0.035; CD8^+ T cells, 61.2±4.2% vs 48.4±4.1%, P=0.043) (FIG. 15). […] We also studied immunophenotypes of splenic T cells from post-IRI mice.
KMNCs were isolated according to our previously described Percoll density gradient protocol. Ascon et al., 2006. Briefly, decapsulated kidneys were immersed and incubated in collagenase D (2 mg/mL; Sigma-Aldrich) solution for 30 min at 37° C. Samples were strained through 70 µm cell strainer (BD Bioscience, Franklin Lakes, NJ), washed, and resuspended in 40% Percoll (GE Healthcare, Chicago, IL) followed by gentle overlaying onto 80% Percoll. After centrifugation at 1,500 g for 30 min in brake off mode at room temperature, KMNCs were collected from interface between 40% and 80% Percoll. […] Cells were counted on hemocytometer using trypan blue exclusion under a microscope.
Cells were washed once with phosphate buffered saline (PBS) and stained with viability dye Zombie NIR Fixable Viability (BioLegend, San Diego, CA) for 15 min at room temperature. […] Samples were analyzed by 4-laser Aurora spectral flow cytometer (Cytek, Fremont, CA). […]

[2] = 1.83 mg/kg every other day i.p.; even with a longer duration of treatment; cited from earlier work

In the case of `CCOC(=O)[C@H](CCC(=O)C=[N+]=[N-])NC(=O)[C@@H](N)CC(C)C` [JHU083], the “plasma creatinine at 24 h” value ([1]; 24 h after IRI, JHU083 1.83 mg/kg i.p. every other day, mean±SEM, vehicle 1.61±0.18, P=0.026) is reported as 1.07 ± 0.14 mg/dL, the cortical necrotic tubules ([1]; 24 h after IRI, vehicle 6.6±0.9, P=0.039) is reported as 4.2±0.5% and the medullary necrotic tubules ([1]; 24 h after IRI, vehicle 69.7±3.1, P=0.093) is reported as 58.3±5.7%. The renal injury ([1]; Example 1, FIG. 7, treated before inducing AKI) was “attenuated renal injury at 24 hr”, the “immunophenotypes of splenic CD4+ and CD8+ T cells” value (splenic T cells) was “increased naïve phenotypes with low CD44 and high CD62L expression” and the “tolerability of dosage regimen” value [2] was “tolerable without significant toxicity”.
